Activity calls are given as the source filed them. No cut-off for these calls is given here.
Key:
Jurkat [1] = experiment: Inhibition of TNF gene expression in FRT Jurkat TNF reporter cells at 100 uM; type: functional; conditions: Homo sapiens
Jurkat [2] = experiment: Inhibition of TNF gene expression in FRT Jurkat TNF reporter cells at 10 uM; type: functional; conditions: Homo sapiens
Jurkat [3] = experiment: Increase in cell death in human FRT Jurkat TNF reporter cell; type: functional, cell-based
Jurkat [4] = experiment: Increase in Cytotoxicity in human FRT Jurkat TNF reporter cell at 100 uM; type: functional, cell-based
Jurkat [5] = experiment: Viability of the FRT Jurkat TNF reporter cells at 1 uM; type: functional, Homo sapiens
Jurkat [6] = experiment: Inhibition of TNF gene expression in FRT-Jurkat TNF reporter cells at 1 uM; type: functional; conditions: Homo sapiens
Jurkat [7] = experiment: Increase in inhibition of TNF gene expression in FRT Jurkat TNF reporter cells after 30 hrs; type: functional, cell-based; conditions: Homo sapiens

COC(=O)/C=C/c1ccccc1N1C(=O)c2ccccc2C1=O
inhibition at 100 µM (Jurkat [1]): 48%

COC(=O)/C=C/c1ccc(N2C(=O)c3ccccc3C2=O)cc1
inhibition at 100 µM (Jurkat [1]): 41%

O=C1CCC(N2C(=O)c3cccc(I)c3C2=O)C(=O)N1 (centres undefined)
inhibition at 100 µM (Jurkat [1]): 37%

CCCCO/C=C/c1cccc(N2C(=O)c3ccccc3C2=O)c1
inhibition at 100 µM (Jurkat [1]): 49%

O=C1CCC(N2C(=O)c3cccc(/C=C/N4CCCC4=O)c3C2=O)C(=O)N1 (centres undefined)
inhibition at 100 µM (Jurkat [1]): 38%

COC(=O)/C=C/c1cccc2c1C(=O)N(C1CCC(=O)NC1=O)C2=O (centres undefined)
inhibition at 100 µM (Jurkat [1]): 40%

O=C1C=C(c2ccc3c(c2)C(=O)N(C2CCC(=O)NC2=O)C3=O)CCC1 (centres undefined)
inhibition at 100 µM (Jurkat [1]): 35%

O=C1CCCN1/C=C/c1cccc(N2C(=O)c3ccccc3C2=O)c1
inhibition at 100 µM (Jurkat [1]): 36%

O=C1CCC(N2C(=O)c3ccc(/C=C/N4CCCC4=O)cc3C2=O)C(=O)N1 (centres undefined)
inhibition at 100 µM (Jurkat [1]): 36%

COC(=O)/C=C/c1cccc(N2C(=O)c3ccccc3C2=O)c1
inhibition at 100 µM (Jurkat [1]): 44%

CCCCO/C=C/c1ccccc1N1C(=O)c2ccccc2C1=O
inhibition at 100 µM (Jurkat [1]): 47%

O=C1CCC(N2C(=O)c3ccc(Br)cc3C2=O)C(=O)N1 (centres undefined)
inhibition at 100 µM (Jurkat [1]): 35%

O=C1C=C(c2cccc3c2C(=O)N(C2CCC(=O)NC2=O)C3=O)CCC1 (centres undefined)
inhibition at 100 µM (Jurkat [1]): 38%

O=C1c2ccccc2C(=O)N1c1ccc(C2CC=CO2)cc1 (centres undefined)
inhibition at 100 µM (Jurkat [1]): 38%

O=C1CCC(N2C(=O)c3ccc(/C=C/C4CC=CO4)cc3C2=O)C(=O)N1 (centres undefined)
inhibition at 100 µM (Jurkat [1]): 40%

CCCCO/C=C/c1ccc2c(c1)C(=O)N(C1CCC(=O)NC1=O)C2=O (centres undefined)
inhibition at 10 µM (Jurkat [2]): 52% | Activity (Jurkat [3]): Active | Activity (Jurkat [4]): Active | inhibition at 100 µM (Jurkat [1]): 69% | Activity (Jurkat [5]): 100% | inhibition at 1 µM (Jurkat [6]): 32% | Activity (Jurkat [7]): Dose-dependent effect

CCCCOC(=O)/C=C/c1cccc(N2C(=O)c3ccccc3C2=O)c1
inhibition at 100 µM (Jurkat [1]): 35%

CCCCO/C=C/c1cccc2c1C(=O)N(C1CCC(=O)NC1=O)C2=O (centres undefined)
inhibition at 100 µM (Jurkat [1]): 47%

CCCCOC(=O)/C=C/c1ccc(N2C(=O)c3ccccc3C2=O)cc1
inhibition at 100 µM (Jurkat [1]): 35%

O=C1C=C(c2cccc(N3C(=O)c4ccccc4C3=O)c2)CCC1
inhibition at 100 µM (Jurkat [1]): 47%

COC(=O)/C=C/c1ccc2c(c1)C(=O)N(C1CCC(=O)NC1=O)C2=O (centres undefined)
inhibition at 100 µM (Jurkat [1]): 39%

O=C1CCC(N2C(=O)c3ccccc3C2=O)C(=O)N1 (centres undefined) [THALIDOMIDE]
inhibition at 10 µM (Jurkat [2]): 35% | inhibition at 100 µM (Jurkat [1]): 38% | inhibition at 1 µM (Jurkat [6]): 31%

CCCCOC(=O)/C=C/c1ccccc1N1C(=O)c2ccccc2C1=O
inhibition at 100 µM (Jurkat [1]): 52%

O=C1c2ccccc2C(=O)N1c1cccc(C2CC=CO2)c1 (centres undefined)
inhibition at 100 µM (Jurkat [1]): 50%

O=C1c2ccccc2C(=O)N1c1cccc(I)c1
inhibition at 100 µM (Jurkat [1]): 37%

CCCCOC(=O)/C=C/c1ccc2c(c1)C(=O)N(C1CCC(=O)NC1=O)C2=O (centres undefined)
inhibition at 100 µM (Jurkat [1]): 42%

O=C1CCC(N2C(=O)c3cccc(C4CC=CO4)c3C2=O)C(=O)N1 (centres undefined)
inhibition at 100 µM (Jurkat [1]): 50%

O=C1c2ccccc2C(=O)N1c1ccc(I)cc1
inhibition at 100 µM (Jurkat [1]): 36%

CCCCOC(=O)/C=C/c1cccc2c1C(=O)N(C1CCC(=O)NC1=O)C2=O (centres undefined)
inhibition at 100 µM (Jurkat [1]): 44%

O=C1c2ccccc2C(=O)N1c1ccccc1I
inhibition at 100 µM (Jurkat [1]): 40%

CCCCO/C=C/c1ccc(N2C(=O)c3ccccc3C2=O)cc1
inhibition at 100 µM (Jurkat [1]): 48%

From ChEMBL document CHEMBL1137495, “Synthesis and TNF expression inhibitory properties of new thalidomide analogues derived via Heck cross coupling” (2007)
